Source: patent publication US20110206685A1, “SCREENING ASSAYS FOR INHIBITORS OF A STAPHYLOCOCCUS AUREUS SIDEROPHORE” (priority 2004, published 2011)

Experiments:
Type in all cases: cell-based, Staphylococcus aureus
sbnB::Tet mutant = conditions: iron-restricted media / serum
Text: SbnB encodes a putative ornithine cyclodeaminase and may work in concert with SbnA to produce L-2,3-diaminopropionic acid, a likely precursor for staphylobactin. Ornithine cyclodeaminases mediate the deamination of ornithine and cyclization to proline and depended on NAD+. A mutation in sbnB was created by insertion of a Tet cassette. […] While proline is unlikely to be a siderophore precursor, ammonia may be a desired product for staphylobactin biosynthesis. […] Further, we observed in a mouse kidney abscess experiment, sbnB deficient strains were compromised for virulence (data not shown, n=7 mice).

[1] = system: sbnD mutant and wild type strains; assay: MIC comparison of sbnD mutant and wild type strains; conditions: sbnD::Km mutant versus wild type
Text: SbnD encodes a putative multi-drug efflux pump. A mutation in sbnD was created by insertion of a Km cassette.

S. aureus RN6390 = assay: Siderophore plate bioassay (promotion of iron-restricted growth); conditions: HPLC-isolated peak from culture supernatant of RN6390 fur::Km; TMS medium with 20 μM EDDHA
Procedure: The ability of siderophores to promote the iron-restricted growth of S. aureus was assessed using siderophore plate bioassays, performed as previously described (Sebulsky et al., (2000) J. Bacteriol. 182:4394-4400). Briefly, S. aureus RN6390 was incorporated into solid TMS medium (1.4×10^4 cells/ml) containing 20 μM EDDHA. The ability of purified siderophores to promote growth of S. aureus was assessed after incubation of plates for 36 hours at 37° C.

| Compound | rescue of the iron-restricted growth phenotype of the sbnB mutant by added compound (sbnB::Tet mutant) | difference in MIC (minimum inhibitory concentration) values between sbnD mutant and wild type strains [1] | other results |
| --- | --- | --- | --- |
| O=C(O)[C@@H]1CCCN1 [proline] | does not bypass the sbnB mutation | – | – |
| CCn1cc(C(=O)O)c(=O)c2cc(F)c(N3CCNCC3)cc21 [norfloxacin] | – | No difference | – |
| CCn1cc(C(=O)O)c(=O)c2ccc(C)nc21 [nalidixic acid] | – | No difference | – |
| staphylobactin | – | – | biological activity in siderophore plate bioassays (promotion of iron-restricted growth of S. aureus) (S. aureus RN6390): retained biological activity |
| NCC(N)C(=O)O (centres unmarked) [diaminopropionic acid] | can be overcome | – | – |
